Assay results as given in the supplement of paper PMC5662764.
± gives the standard deviation of the averaged measurements.

Assays:
Assay in all cases: normalised growth rate inhibition (GR value) relative to DMSO control (GR (1 = untreated growth, 0 = cytostasis, <0 = cytotoxic)); higher = less growth inhibition
Settings in all cases: 72 h
MDAMB231 = tested on: MDAMB231
Experimental: (§1)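 Breast cancer cell lines (BT-20, Hs 578T, MCF 10A, MCF7, MDA-MB-231, SK-BR-3) were plated in 384-well plates and treated 24 h later with drugs at six concentrations (0.04-10 µM). Viable cells were counted by Hoechst/dead-cell-stain imaging at 0 and 72 h. Counts were normalised to DMSO controls on the same plate to give the relative cell count and the growth-rate inhibition (GR) value; technical plate triplicates were averaged for each biological replicate.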

HS578T = tested on: HS578T
Experimental: as §1

BT20 = tested on: BT20
Experimental: as §1

MCF10A = tested on: MCF10A
Experimental: as §1

MCF7 = tested on: MCF7
Experimental: as §1

SKBR3 = tested on: SKBR3
Experimental: as §1

Structure (SMILES) | normalised growth rate inhibition (MDAMB231; 0.04 µM) | normalised growth rate inhibition (MDAMB231; 0.12 µM) | normalised growth rate inhibition (MDAMB231; 0.37 µM) | normalised growth rate inhibition (MDAMB231; 1.11 µM) | normalised growth rate inhibition (MDAMB231; 3.33 µM) | normalised growth rate inhibition (MDAMB231; 10 µM) | normalised growth rate inhibition (HS578T; 0.04 µM) | normalised growth rate inhibition (HS578T; 0.12 µM) | normalised growth rate inhibition (HS578T; 0.37 µM) | normalised growth rate inhibition (HS578T; 1.11 µM) | normalised growth rate inhibition (HS578T; 3.33 µM) | normalised growth rate inhibition (HS578T; 10 µM) | normalised growth rate inhibition (BT20; 0.04 µM) | normalised growth rate inhibition (BT20; 0.12 µM) | normalised growth rate inhibition (BT20; 0.37 µM) | normalised growth rate inhibition (BT20; 1.11 µM) | normalised growth rate inhibition (BT20; 3.33 µM) | normalised growth rate inhibition (BT20; 10 µM) | normalised growth rate inhibition (MCF10A; 0.04 µM) | normalised growth rate inhibition (MCF10A; 0.12 µM) | normalised growth rate inhibition (MCF10A; 0.37 µM) | normalised growth rate inhibition (MCF10A; 1.11 µM) | normalised growth rate inhibition (MCF10A; 3.33 µM) | normalised growth rate inhibition (MCF10A; 10 µM) | normalised growth rate inhibition (MCF7; 0.04 µM) | normalised growth rate inhibition (MCF7; 0.12 µM) | normalised growth rate inhibition (MCF7; 0.37 µM) | normalised growth rate inhibition (MCF7; 1.11 µM) | normalised growth rate inhibition (MCF7; 3.33 µM) | normalised growth rate inhibition (MCF7; 10 µM) | normalised growth rate inhibition (SKBR3; 0.04 µM) | normalised growth rate inhibition (SKBR3; 0.12 µM) | normalised growth rate inhibition (SKBR3; 0.37 µM) | normalised growth rate inhibition (SKBR3; 1.11 µM) | normalised growth rate inhibition (SKBR3; 3.33 µM) | normalised growth rate inhibition (SKBR3; 10 µM)
CC(=O)Nc1nc(C)c(-c2ccc(Cl)c(S(=O)(=O)NCCO)c2)s1 | 1.01 ± 0.055 | 1.01 ± 0.061 | 0.999 ± 0.1 | 0.919 ± 0.061 | 0.78 ± 0.036 | 0.272 ± 0.021 | 1.013 ± 0.0069 | 1.01 ± 0.02 | 0.99 ± 0.056 | 0.929 ± 0.093 | 0.585 ± 0.16 | 0.162 ± 0.19 | 1.024 ± 0.0077 | 1.02 ± 0.03 | 1.05 ± 0.034 | 0.973 ± 0.068 | 0.746 ± 0.033 | 0.0954 ± 0.044 | 0.9973 ± 0.0055 | 0.995 ± 0.02 | 0.993 ± 0.029 | 0.959 ± 0.026 | 0.831 ± 0.094 | 0.502 ± 0.077 | 1.08 ± 0.094 | 1.03 ± 0.14 | 0.994 ± 0.22 | 0.88 ± 0.28 | 0.441 ± 0.11 | 0.0722 ± 0.078 | 1.09 ± 0.03 | 1.09 ± 0.045 | 1.01 ± 0.094 | 0.916 ± 0.12 | 0.597 ± 0.037 | 0.00524 ± 0.12
CCn1c(-c2nonc2N)nc2c(C#CC(C)(C)O)ncc(OC[C@H]3CCCNC3)c21 | 0.86 ± 0.088 | 0.904 ± 0.021 | 0.906 ± 0.021 | 0.94 ± 0.026 | 1.01 ± 0.032 | 0.869 ± 0.08 | 0.846 ± 0.058 | 0.798 ± 0.075 | 0.726 ± 0.084 | 0.713 ± 0.11 | 0.717 ± 0.13 | 0.728 ± 0.12 | 0.8181 ± 0.0049 | 0.779 ± 0.062 | 0.636 ± 0.11 | 0.521 ± 0.12 | 0.453 ± 0.062 | 0.371 ± 0.047 | 0.989 ± 0.029 | 0.976 ± 0.024 | 0.937 ± 0.039 | 0.873 ± 0.034 | 0.872 ± 0.039 | 0.891 ± 0.042 | 0.6 ± 0.073 | 0.499 ± 0.17 | 0.42 ± 0.13 | 0.374 ± 0.096 | 0.361 ± 0.09 | 0.312 ± 0.09 | 0.578 ± 0.064 | 0.555 ± 0.035 | 0.556 ± 0.038 | 0.571 ± 0.039 | 0.62 ± 0.032 | 0.658 ± 0.065
CN(c1ccccc1CNc1nc(Nc2ccc3c(c2)CC(=O)N3)ncc1C(F)(F)F)S(C)(=O)=O | 0.913 ± 0.058 | 0.78 ± 0.082 | 0.49 ± 0.2 | 0.241 ± 0.13 | 0.11 ± 0.13 | -0.197 ± 0.22 | 0.761 ± 0.021 | 0.694 ± 0.042 | 0.537 ± 0.063 | 0.27 ± 0.068 | 0.181 ± 0.076 | -0.0957 ± 0.088 | 0.902 ± 0.043 | 0.763 ± 0.035 | 0.414 ± 0.12 | 0.121 ± 0.12 | 0.0389 ± 0.12 | -0.19 ± 0.21 | 0.744 ± 0.029 | 0.501 ± 0.056 | 0.233 ± 0.087 | 0.106 ± 0.019 | 0.0578 ± 0.032 | -0.154 ± 0.16 | 0.742 ± 0.065 | 0.471 ± 0.1 | 0.184 ± 0.078 | 0.0628 ± 0.026 | -0.0235 ± 0.037 | -0.28 ± 0.03 | 1.04 ± 0.024 | 0.653 ± 0.081 | 0.306 ± 0.017 | 0.0323 ± 0.071 | -0.0178 ± 0.071 | -0.141 ± 0.18
Cc1[nH]c(/C=C2\C(=O)Nc3ccc(S(=O)(=O)Cc4c(Cl)cccc4Cl)cc32)c(C)c1C(=O)N1CCC[C@@H]1CN1CCCC1 | 1.03 ± 0.045 | 1.02 ± 0.069 | 1.02 ± 0.043 | 0.997 ± 0.053 | 0.94 ± 0.023 | -0.343 ± 0.3 | 1 ± 0.028 | 1.002 ± 0.003 | 1 ± 0.011 | 0.96 ± 0.032 | 0.954 ± 0.018 | -0.131 ± 0.58 | 1.017 ± 0.0089 | 1.01 ± 0.052 | 1.003 ± 0.0079 | 0.976 ± 0.042 | 0.973 ± 0.035 | 0.22 ± 0.42 | 0.991 ± 0.01 | 0.9827 ± 0.0045 | 0.9763 ± 0.0045 | 0.967 ± 0.012 | 0.9647 ± 0.0068 | 0.544 ± 0.43 | 1.06 ± 0.012 | 1.06 ± 0.073 | 1.05 ± 0.051 | 1.01 ± 0.059 | 0.923 ± 0.052 | 0.665 ± 0.17 | 1.04 ± 0.071 | 1.06 ± 0.052 | 1.07 ± 0.087 | 1.06 ± 0.098 | 0.956 ± 0.047 | 0.012 ± 0.5
Cc1[nH]c(/C=C2\C(=O)Nc3ccc(S(=O)(=O)N(C)c4cccc(Cl)c4)cc32)c(C)c1C(=O)N1CCN(C)CC1 | 1.07 ± 0.065 | 1.01 ± 0.04 | 1 ± 0.057 | 0.954 ± 0.058 | 0.847 ± 0.076 | 0.0987 ± 0.12 | 1.02 ± 0.014 | 0.992 ± 0.013 | 0.9492 ± 0.0032 | 0.883 ± 0.025 | 0.818 ± 0.03 | 0.159 ± 0.083 | 1.06 ± 0.037 | 1.04 ± 0.017 | 1 ± 0.029 | 0.922 ± 0.015 | 0.819 ± 0.011 | 0.0654 ± 0.082 | 1 ± 0.019 | 0.976 ± 0.02 | 0.941 ± 0.02 | 0.867 ± 0.01 | 0.742 ± 0.022 | 0.474 ± 0.032 | 1.1 ± 0.046 | 1.05 ± 0.075 | 1.01 ± 0.073 | 0.858 ± 0.037 | 0.712 ± 0.045 | 0.0989 ± 0.046 | 1.14 ± 0.075 | 1.08 ± 0.085 | 1.11 ± 0.057 | 0.996 ± 0.058 | 0.923 ± 0.032 | 0.00625 ± 0.024
Cc1ccc2nc(NCCN)c3ncc(C)n3c2c1 | 0.9929 ± 0.0097 | 0.936 ± 0.097 | 0.885 ± 0.06 | 0.652 ± 0.085 | 0.265 ± 0.11 | -0.253 ± 0.2 | 1.01 ± 0.018 | 0.998 ± 0.018 | 0.99 ± 0.021 | 0.92 ± 0.049 | 0.723 ± 0.11 | -0.218 ± 0.13 | 1.01 ± 0.027 | 0.968 ± 0.055 | 0.952 ± 0.087 | 0.847 ± 0.12 | 0.778 ± 0.082 | -0.00828 ± 0.2 | 0.996 ± 0.011 | 0.979 ± 0.014 | 0.974 ± 0.016 | 0.967 ± 0.019 | 0.957 ± 0.018 | 0.85 ± 0.046 | 1.06 ± 0.058 | 1 ± 0.06 | 0.883 ± 0.058 | 0.502 ± 0.14 | 0.0136 ± 0.12 | -0.348 ± 0.14 | 1.05 ± 0.043 | 1.01 ± 0.088 | 0.929 ± 0.11 | 0.604 ± 0.066 | 0.192 ± 0.13 | -0.358 ± 0.23
Cc1cnc(Nc2ccc(OCCN3CCCC3)cc2)nc1Nc1cccc(S(=O)(=O)NC(C)(C)C)c1 | 1.01 ± 0.074 | 0.934 ± 0.075 | 0.877 ± 0.11 | 0.643 ± 0.19 | 0.104 ± 0.19 | -0.306 ± 0.15 | 1.01 ± 0.019 | 0.986 ± 0.019 | 0.887 ± 0.03 | 0.655 ± 0.066 | 0.258 ± 0.1 | -0.184 ± 0.17 | 1.04 ± 0.029 | 0.969 ± 0.0097 | 0.934 ± 0.022 | 0.823 ± 0.031 | 0.629 ± 0.024 | -0.141 ± 0.14 | 0.989 ± 0.019 | 0.964 ± 0.018 | 0.938 ± 0.028 | 0.876 ± 0.041 | 0.512 ± 0.19 | 0.0536 ± 0.034 | 1.02 ± 0.06 | 0.96 ± 0.079 | 0.813 ± 0.11 | 0.545 ± 0.23 | 0.0996 ± 0.12 | -0.272 ± 0.058 | 1.07 ± 0.082 | 0.997 ± 0.013 | 0.907 ± 0.023 | 0.766 ± 0.065 | 0.501 ± 0.11 | -0.201 ± 0.095
